Legend:
mTOR/GbL/Raptor (mTORC1) = mTOR/GbL/Raptor (mTORC1) (Homo sapiens, UniProt P42345); experiment: mTOR/GbL/Raptor (mTORC1) ELISA assay; format: biochemical; settings: phosphorylation of 4E-BP1; 0.2 nM mTORC1, 10 μM ATP, 50 nM NHis-tagged 4E-BP1
Method: mTOR/GbL/Raptor (mTORC1) ELISA Assay
The measurement of mTORC1 enzyme activity was performed in an ELISA assay format following the phosphorylation of 4E-BP1 protein. All experiments were performed in the 384-well format. Generally, 0.5 μL DMSO containing varying concentrations of the test compound was mixed with 15 μL enzyme solution. Kinase reactions were initiated with the addition of 15 μL of substrates-containing solution. The assay conditions were as follows; 0.2 nM mTORC1, 10 μM ATP and 50 nM NHis-tagged 4E-BP1 in 20 mM Hepes, pH 7.2, 1 mM DTT, 50 mM NaCl, 10 mM MnCl2, 0.02 mg/mL BSA, 0.01% CHAPS, 50 mM β-glycerophosphate. Following an incubation of 120 minutes at ambient temperature, 20 μL of the reaction volume was transferred to a Ni-Chelate-coated 384-well plate. The binding step of the 4E-BP1 protein proceeded for 60 minutes, followed by washing 4 times each with 50 μL of Tris-buffered saline solution (TBS). Anti-phospho-4E-BP1 rabbit-IgG (20 μL, 1:5000) in 5% BSA-TBST (0.2% Tween-20 in TBS) was added and further incubated for 60 minutes. Incubation with a secondary HRP-tagged anti-IgG was similarly performed after washing off the primary antibody (4 washes of 50 μL). Following the final wash step with TBST, 20 μL of SuperSignal ELISA Femto (Pierce Biotechnology) was added and the luminescence measured using an EnVision plate reader.

PI3Kα = PI3Kα (Homo sapiens, UniProt P42336); experiment: PI3K biochemical assay (PI3K-alpha, luciferase-luciferin ATP consumption); settings: 3 nM enzyme, 1 μM ATP, 10 μM PIP2; percent of ATP consumed
Method: PI3Kα activity was measured as the percent of ATP consumed following the kinase reaction using luciferase-luciferin-coupled chemiluminescence. Reactions were conducted in 384-well white, medium binding microtiter plates (Greiner). Kinase reactions were initiated by combining test compounds, ATP, substrate (PIP2), and kinase in a 20 μL volume in a buffer solution. The standard PI3Kalpha assay buffer was composed 50 mM Tris, pH 7.5, 1 mM EGTA, 10 mM MgCl2, 1 mM DTT and 0.03% CHAPS. The standard assay concentrations for enzyme, ATP, and substrate were 3 nM, 1 μM, and 10 μM, respectively. The reaction mixture was incubated at ambient temperature for approximately 2 h. Following the kinase reaction, a 10 μL aliquot of luciferase-luciferin mix (Promega Kinase-Glo) was added and the chemiluminescence signal measured using a Victor2 or EnVision (Perkin Elmer). Total ATP consumption was limited to 40-60% and IC50 values of control compounds correlate well with literature references. Substituting PI3Kα with PI3Kβ, PI3Kγ, or […], the inhibitory activity of the compounds for the other isoforms of PI3K were measured. For the PI3Kβ and PI3Kδ assays, enzyme concentrations were 10 nM and 4 nM, respectively. For the PI3Kγ assay, enzyme concentration was 40 nM, the incubation time was 1 h, and the concentration of MgCl2 in the assay buffer was 5 mM.

Sequence of PI3Kα (P42336 whole entry): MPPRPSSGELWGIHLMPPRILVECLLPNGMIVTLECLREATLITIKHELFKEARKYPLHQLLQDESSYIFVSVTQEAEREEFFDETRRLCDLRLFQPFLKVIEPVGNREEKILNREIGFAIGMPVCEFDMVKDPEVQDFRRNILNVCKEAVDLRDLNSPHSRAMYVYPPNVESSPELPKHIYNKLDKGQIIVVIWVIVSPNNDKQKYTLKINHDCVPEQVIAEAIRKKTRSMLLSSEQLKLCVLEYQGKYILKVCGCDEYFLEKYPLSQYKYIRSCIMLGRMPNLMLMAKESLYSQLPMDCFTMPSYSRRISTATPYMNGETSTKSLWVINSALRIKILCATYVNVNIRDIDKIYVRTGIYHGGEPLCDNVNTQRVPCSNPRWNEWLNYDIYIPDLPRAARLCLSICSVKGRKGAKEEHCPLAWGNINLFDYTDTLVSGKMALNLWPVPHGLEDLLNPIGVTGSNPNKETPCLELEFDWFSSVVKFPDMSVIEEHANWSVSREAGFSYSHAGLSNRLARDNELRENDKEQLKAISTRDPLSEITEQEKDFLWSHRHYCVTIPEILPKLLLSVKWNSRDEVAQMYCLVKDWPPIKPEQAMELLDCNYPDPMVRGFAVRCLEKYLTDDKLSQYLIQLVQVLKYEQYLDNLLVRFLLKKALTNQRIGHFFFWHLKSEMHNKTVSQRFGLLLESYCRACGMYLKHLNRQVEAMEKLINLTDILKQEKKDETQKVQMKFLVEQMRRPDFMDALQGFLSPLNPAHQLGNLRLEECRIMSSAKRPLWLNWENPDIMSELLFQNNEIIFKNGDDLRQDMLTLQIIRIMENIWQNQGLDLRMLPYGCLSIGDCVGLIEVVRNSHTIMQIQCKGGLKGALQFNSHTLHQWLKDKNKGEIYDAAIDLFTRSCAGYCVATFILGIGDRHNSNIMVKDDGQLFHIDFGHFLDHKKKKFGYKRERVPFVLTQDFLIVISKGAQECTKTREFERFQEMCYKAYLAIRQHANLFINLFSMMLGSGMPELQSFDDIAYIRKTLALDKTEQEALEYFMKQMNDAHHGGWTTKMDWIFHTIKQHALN
Sequence of PI3Kα (P27986 whole entry partner): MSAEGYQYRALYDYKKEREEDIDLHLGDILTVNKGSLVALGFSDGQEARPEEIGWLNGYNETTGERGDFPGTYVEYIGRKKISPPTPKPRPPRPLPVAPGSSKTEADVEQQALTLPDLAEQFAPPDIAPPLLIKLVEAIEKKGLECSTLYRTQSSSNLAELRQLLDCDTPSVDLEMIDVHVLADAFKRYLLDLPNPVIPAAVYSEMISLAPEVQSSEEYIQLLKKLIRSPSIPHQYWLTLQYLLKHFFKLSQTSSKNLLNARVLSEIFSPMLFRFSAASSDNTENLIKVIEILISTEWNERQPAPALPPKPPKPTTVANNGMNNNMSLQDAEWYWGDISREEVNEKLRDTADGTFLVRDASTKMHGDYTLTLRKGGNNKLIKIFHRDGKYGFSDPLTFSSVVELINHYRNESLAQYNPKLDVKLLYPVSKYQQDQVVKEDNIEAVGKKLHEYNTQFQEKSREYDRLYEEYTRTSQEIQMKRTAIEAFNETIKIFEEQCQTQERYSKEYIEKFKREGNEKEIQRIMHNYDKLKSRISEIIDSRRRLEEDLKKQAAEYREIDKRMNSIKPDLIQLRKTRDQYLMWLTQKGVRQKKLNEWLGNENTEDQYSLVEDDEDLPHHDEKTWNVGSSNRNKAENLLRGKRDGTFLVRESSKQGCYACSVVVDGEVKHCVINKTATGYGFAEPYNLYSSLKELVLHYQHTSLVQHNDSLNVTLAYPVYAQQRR

IC50 (mTOR/GbL/Raptor (mTORC1)) [nM] | IC50 (PI3Kα) [nM] | SMILES
500 to 2500 | 500 to 2500 | Cc1cc(N2CCOc3ccc(-c4ccc5[nH]cnc5c4)cc3C2)nc(N)n1 [Compound 43, 4-[7-(1H-benzimidazol-5-yl)-2,3-dihydro-1,4-benzoxazepin-4(5H)-yl]-6-methylpyrimidin-2-amine]
100 to 500 | 500 to 2500 | Cc1nc2cc(-c3ccc4c(c3)CN(c3nc(NC(C)C)nc(C)c3Cc3ccc(F)cc3)CCO4)ccc2[nH]1 [Compound 19, 5-[(4-fluorophenyl)methyl]-4-methyl-6-[7-(2-methyl-1H-benzimidazol-5-yl)-2,3-dihydro-1,4-benzoxazepin-4(5H)-yl]-N-(1-methylethyl)pyrimidin-2-amine]

Reference: patent US20140073628A1, “BENZOXAZEPINES ASN INHIBITORS OF P13K/M TOR AND METHODS OF THEIR USE AND MANUFACTURE” (priority 2010, published 2014)
